Entries after “also recorded” stand apart in the source; their conditions may differ.
Experiments:
SK1 [1] = target: T1, SK1 (Homo sapiens, UniProt Q9NYA1); assay: SK1 activity assay (inhibition; [γ-32P]ATP, recombinant SK1 in HEK 293 cell lysates); format: biochemical; design: made in house; host or cells: HEK 293 cells (lysate, not purified); conditions: for SK1 inhibition (in words): 3 μM Sph, 250 μM ATP (Figure 3); for isoform selectivity SK1 vs SK2 (in words): comparison of inhibition of SK1 (3 μM Sph) and SK2 (10 μM Sph)
T1 sequence (Q9NYA1 whole entry, canonical isoform): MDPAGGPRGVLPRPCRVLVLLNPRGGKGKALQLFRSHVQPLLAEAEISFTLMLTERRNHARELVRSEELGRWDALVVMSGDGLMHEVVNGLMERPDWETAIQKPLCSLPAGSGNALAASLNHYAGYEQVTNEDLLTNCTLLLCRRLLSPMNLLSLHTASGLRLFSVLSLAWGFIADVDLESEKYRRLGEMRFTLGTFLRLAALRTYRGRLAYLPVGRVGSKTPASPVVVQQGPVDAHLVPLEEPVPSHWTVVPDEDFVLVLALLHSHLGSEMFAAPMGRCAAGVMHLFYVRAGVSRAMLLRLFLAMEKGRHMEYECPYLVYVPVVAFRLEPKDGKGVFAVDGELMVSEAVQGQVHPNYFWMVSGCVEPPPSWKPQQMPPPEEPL

SK2 [2] = target: T2, SK2 (Homo sapiens, UniProt Q9NRA0); assay: Evaluation of compounds as putative substrates of SK2 (absence of Sph); conditions: 50 μM compound, 250 μM ATP, absence of Sph (Fig. S1)
T2 sequence (Q9NRA0 1-654): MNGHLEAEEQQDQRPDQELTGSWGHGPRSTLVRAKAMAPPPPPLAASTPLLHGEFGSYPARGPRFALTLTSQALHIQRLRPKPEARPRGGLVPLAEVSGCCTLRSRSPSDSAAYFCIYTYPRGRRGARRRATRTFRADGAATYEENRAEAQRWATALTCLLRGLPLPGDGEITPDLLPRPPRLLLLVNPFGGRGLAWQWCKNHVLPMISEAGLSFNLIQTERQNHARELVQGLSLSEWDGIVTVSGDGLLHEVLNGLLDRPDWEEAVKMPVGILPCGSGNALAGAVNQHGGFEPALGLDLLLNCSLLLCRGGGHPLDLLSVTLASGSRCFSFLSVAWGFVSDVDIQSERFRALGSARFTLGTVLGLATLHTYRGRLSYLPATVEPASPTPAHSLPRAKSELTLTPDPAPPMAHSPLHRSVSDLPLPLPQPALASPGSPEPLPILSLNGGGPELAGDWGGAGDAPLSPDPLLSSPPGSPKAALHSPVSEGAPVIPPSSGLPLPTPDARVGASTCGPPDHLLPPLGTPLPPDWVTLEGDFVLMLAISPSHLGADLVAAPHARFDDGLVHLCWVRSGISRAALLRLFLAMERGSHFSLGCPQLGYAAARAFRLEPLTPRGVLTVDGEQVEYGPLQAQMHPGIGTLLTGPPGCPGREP

SK2 [3] = target: T2, SK2; assay: SK2 activity assay (inhibition; [γ-32P]ATP, purified SK2); format: biochemical; conditions: 50 μM compound, 10 μM Sph, 250 μM ATP (Figure 3)
Description: To examine SAR among a panel of related compounds, we prepared a series of analogues bearing a 4-hydroxypiperidinyl group but varied the linker length between the aryl group and the piperidine. We also assessed the role of the alkyl substituent in the aryl group.
Figure 3 Effect of inhibitors on SK1 or SK2 activity. SK1 activity was measured using 3 μM Sph and 250 μM ATP. SK2 activity was assayed using 10 μM Sph and 250 μM ATP (n = 3 for each compound; results are expressed as % of control ± SD). […]. The control is 100% and equals activity against Sph alone.
Sphingosine kinase activity assays.
For SK2 activity assays, sphingosine (Sph) was complexed with fatty acid free bovine serum albumin (final concentration, 0.2 mg/mL) in reaction buffer 1 containing 20 mM Tris (pH 7.4), 1 mM EDTA, 1 mM Na3VO4, 40 mM β−glycerophosphate, 1 mM NaF, 0.007% (v/v) β6mercaptoethanol, 20% (v/v) glycerol, 10 µg/mL aprotinin, 10 µg/mL soybean trypsin inhibitor, 1 mM PMSF, 0.5 mM 46 deoxypyridoxine, and 400 mM KCl. Inhibition of SK2 activity was determined by incubating 37 ng of purified SK2 for 30 min at 30 °C in the presence of 10 µM Sph, 250 µM of [γ632P]ATP (specific activity, 4.4×10^4 cpm/nmol) in 10 mM MgCl2, and varying concentrations of the inhibitors dissolved in DMSO or control (5% v/v DMSO). […]
Compounds bearing hydroxyl groups were assessed for their ability to act as substrates for SK1 and […]

SK1 [4] = target: T1, SK1; assay: Evaluation of compounds as putative substrates of SK1 (absence of Sph); conditions: 50 μM compound, 250 μM ATP

Molecule	SK1 inhibition (in words) (SK1 [1]; 50 μM compound)	other results
Cc1ccc(CCN2CCC(O)CC2)cc1 [RB-026, 1-(4-Methylphenethyl)piperidin-4-ol]	almost complete lack of inhibition	decrease of SK1 inhibition compared with RB-023 (SK1 [1]; 50 μM compound): more than 6 fold
1-Methyl-4-(4-octylphenethyl)pyridinium Iodide [RB-052]	ineffective as SK inhibitors	–
CCCCCCCCc1ccc(CCN2CCC[C@@H]2CO)cc1 [RB-040, (R)-(1-(4-Octylphenethyl)pyrrolidin-2-yl)methanol]	–	isoform selectivity SK1 vs SK2 (in words) (SK1 [1]): equipotent inhibitors of SK1 and SK2
CCCCCCCCCCCCc1ccc(CCN2CCC[C@H]2CO)cc1 [RB-043, (S)-(1-(4-Dodecylphenethyl)pyrrolidin-2-yl)methanol]	much less active; also recorded: abolished	substrate for SK2 (in words) (SK2 [2]): weak substrates for SK2
CCCCCCCCc1ccc(CCN2CCC(N=[N+]=[N-])CC2)cc1 [RB-030, 4-Azido-1-(4-octylphenethyl)piperidine]	reduced SK1 inhibition markedly	–
CCCCc1cn(-c2ccc(CC[N+]3(C)CCCCC3)cc2)nn1.CS(=O)(=O)[O-] [RB-060, 1-(4-(4-Butyl-1H-1,2,3-triazol-1-yl)phenethyl)-1-methylpiperidinium Methanesulfonate]	ineffective as SK inhibitors	–
4-(4-Octylphenethyl)pyridine [RB-051]	effectively abolished	–
CCCCCCCCc1ccc(CCN2CC[C@H](O)C2)cc1 [RB-037, (S)-1-(4-Octylphenethyl)pyrrolidin-3-ol]	retained inhibitory activity against SK1	substrate for SK2 (in words) (SK2 [2]): weak substrates for SK2
CCCCCCCCCCCCc1ccc(CCN2CCC(N)CC2)cc1 [RB-033, 1-(4-Dodecylphenethyl)piperidin-4-amine]	eliminated the inhibitory activity toward SK1	–
CCCCCCCCc1cn(-c2ccc(CCN3CCC(O)CC3)cc2)nn1 [RB-065]	–	isoform selectivity SK1 vs SK2 (in words) (SK1 [1]): highly selective SK1 inhibitor
CCCCCCCCc1ccc(CCN2CCC(=O)CC2)cc1 [RB-035, 1-(4-Octylphenethyl)piperidin-4-one]	maintained inhibition of SK1	SK2 inhibition (in words) (SK2 [3]): increased inhibition of SK2; isoform selectivity SK1 vs SK2 (in words) (SK1 [1]): eliminated the isoform selectivity
CCCCCCCCc1ccc(C(=O)NCc2ccncc2)cc1 [RB-048, 4-Octyl-N-(pyridin-4-ylmethyl)benzamide]	effectively abolished	–
CCCCCCCCc1ccc(CCCCN2CCC(O)CC2)cc1 [RB-025, 1-(4-(4-Octylphenyl)butyl)piperidin-4-ol]	did not significantly alter	substrate for SK1 (in words) (SK1 [4]): not substrates for SK1
CCCCCCCCc1ccc(CCCN2CCC(O)CC2)cc1 [RB-024, 1-(3-(4-Octylphenyl)propyl)piperidin-4-ol]	did not significantly alter	–
CCCCCCCCc1ccc(CCN2CCC(F)CC2)cc1 [RB-034, 4-Fluoro-1-(4-octylphenethyl)piperidine]	eliminated inhibitory activity against SK1	–
CCCCCCCCCCCCc1ccc(CCN2CCC[C@@H]2CO)cc1 [RB-042, (R)-(1-(4-Dodecylphenethyl)pyrrolidin-2-yl)methanol]	–	isoform selectivity SK1 vs SK2 (in words) (SK1 [1]): equipotent inhibitors of SK1 and SK2
CCCCCCCCc1ccc(CCN2CCC[C@H]2CO)cc1 [RB-041, (S)-(1-(4-Octylphenethyl)pyrrolidin-2-yl)methanol]	much less active	substrate for SK2 (in words) (SK2 [2]): weak substrates for SK2
CCCCCCCCc1ccc(C[n+]2ccc(N3CCC(C)CC3)cc2)cc1.[Br-] [RB-053, 4-(4-Methylpiperidin-1-yl)-1-(4-octylbenzyl)pyridinium Bromide]	ineffective as SK inhibitors	isoform selectivity SK1 vs SK2 (in words) (SK1 [1]): moderate selectivity for SK2
CCCCCCCCCCCCc1ccc(CCN2CCC(O)CC2)cc1 [RB-028, 1-(4-Dodecylphenethyl)piperidin-4-ol]	–	substrate for SK1 (in words) (SK1 [4]): not substrates for SK1
CCCCCCCCc1ccc(CCN2CCC(OC)CC2)cc1 [RB-036, 4-Methoxy-1-(4-octylphenethyl)piperidine]	eliminated inhibitory activity against SK1	–
CCCCCCCCc1cn(-c2ccc(CC[N+]3(C)CCCCC3)cc2)nn1.CS(=O)(=O)[O-] [RB-062, 1-Methyl-1-(4-(4-octyl-1H-1,2,3-triazol-1-yl)phenethyl)piperidinium Methanesulfonate]	ineffective as SK inhibitors	–
Cc1ccc(CCN2CCC(N)CC2)cc1 [RB-031, 1-(4-Methylphenethyl)piperidin-4-amine]	eliminated the inhibitory activity toward SK1	–
Cc1ccc(CCN2CCC(N=[N+]=[N-])CC2)cc1 [RB-029, 4-Azido-1-(4-methylphenethyl)piperidine]	reduced SK1 inhibition markedly	–
CCCCCc1cn(-c2ccc(CC[N+]3(C)CCCCC3)cc2)nn1.CS(=O)(=O)[O-] [RB-061, 1-Methyl-1-(4-(4-pentyl-1H-1,2,3-triazol-1-yl)phenethyl)piperidinium Methanesulfonate]	ineffective as SK inhibitors	–
Cc1ccc(CCN2CCC[C@@H]2CO)cc1 [RB-039, (R)-(1-(4-Methylphenethyl)pyrrolidin-2-yl)methanol]	abolished	–
CCCCCCCCc1ccc(CCN2CCC(N)CC2)cc1 [RB-032, 1-(4-Octylphenethyl)piperidin-4-amine]	diminished the potency of SK1 inhibition	isoform selectivity SK1 vs SK2 (in words) (SK1 [1]): isoform selectivity of SK1 over SK2 was retained
CCCCCCCCc1ccc(CCN2CC[C@@H](O)C2)cc1 [RB-038, (R)-1-(4-Octylphenethyl)pyrrolidin-3-ol]	retained inhibitory activity against SK1	–
CCCCCCCCc1ccc(CN2CCC(O)CC2)cc1 [RB-023, 1-(4-Octylbenzyl)piperidin-4-ol]	did not significantly alter	–
